Several values for one entry are separate records, joined by “and”; a condition that tells them apart may be missing. Equal values may be shown once. Marks after values point to notes of the source that are not given here.
How the values were obtained:
PARP [1] = test: PARP inhibition in tumor biopsies of patients; type: in vivo, human
Method: Whole blood was collected into EDTA vacutainers and human PBLs were obtained by lymphopreparation according to the manufacturers instructions. Tumour biopsies were collected from the operating theatre in a sterile container and placed immediately on ice. Within 30 minutes tumour samples were snap frozen in liquid nitrogen and stored at −80° C. until homogenised for analysis. The specimen was defrosted on ice and the wet weight documented. For weights over 100 mg the tissue was homogenised using a Pro 2000 instrument (Pro Scientific Inc, Monroe, Conn., USA) in 3 volumes (i.e. 1 mg plus 3 μl isotonic buffer −7 mM Hepes, 26 mM KCl, 0.1 mM dextran, 0.4 mM EGTA, 0.5 mM MgCl2, 45 mM sucrose, pH 7.8), giving a homogenate with an overall dilution of 1 in 4. Where smaller samples had been obtained they were homogenised in 99 or 999 volumes, giving final dilutions of 1 in 100 and 1 in 1000, respectively. The homogenate was kept on ice throughout the process, and homogenisation was performed in 10 second bursts to prevent undue warming of the sample. Unless assayed on the day of homogenisation, samples were re-frozen to −80° C. and stored at this temperature until analysed. Prior to assay the samples were further diluted with isotonic buffer where necessary to give a final dilution of 1 in 1000.
Tumour homogenates were assayed in a similar manner; however, the homogenisation process introduces sufficient DNA damage to maximally stimulate PARP activity and oligonucleotide was not therefore required. The protein concentration of the homogenate was measured using the BCA protein assay and Titertek Multiscan MCC/340 plate reader. Results can be expressed in terms of pmol PAR former per mg protein or per mg tumour.
A pharmacodynamic assay for PARP activity and inhibition uses monoclonal antibodies to measure the amount of PAR polymer that is formed under set conditions in permeabilized peripheral blood lymphocytes and homogenized tumor samples. The quantity of polymer formed can be used as a correlate for PARP activity, whereby decreasing polymer formation correlates with degree of PARP inhibition. PARP activity is expressed as a percentage of baseline, and is calculated by dividing the amount of PAR polymer formed after infusion by the quantity formed before infusion. The feasibility of this assay was successfully tested in the 12 patients Phase 2 study of single-agent temozolomide in patients with metastatic melanoma.
Using a pharmacodynamic assay for PARP activity disclosed in Section C above, PARP inhibition in peripheral blood lymphocytes and tumor tissue was assessed in a Phase 1 clinical trial. As indicated above, enrollment in the Phase 1 Part 2 study has been restricted to patients having metastatic melanoma with biopsiable disease. All patients have been required to consent to pre-treatment and post-treatment biopsies such that PARP activity in the tumor can be evaluated.

SW620 xenograft = test: In vivo antitumor efficacy with irinotecan, SW620 xenograft; parameters: species or system mice; settings: SW620, once weekly × 3
Description: In no combination study was antagonism observed.

[2] = IV pharmacokinetics in monkeys; settings: cynomolgus monkey, in vivo
SW620 cells = test: Inhibition of cell growth and potentiation of topotecan, SW620; type: cell-based, human
LoVo cells = test: Inhibition of potentially lethal damage recovery, colony formation; type: cell-based; settings: 8 Gy + 0.4 μM compound
Description: A contributory factor to radiation resistance in vivo is the ability of quiescent cells to repair potentially lethal damage (PLD) (Weichselbaum, R. R. and Little, J. B. The differential response of human tumors to fractionated radiation may be due to a post-irradiation repair process. Br. J. Cancer 1982; 46: 532-537). In vitro models of PLD measure the increase in survival of irradiated, growth arrested cells following delayed plating for colony formation. Recovery from potentially lethal damage was measured in vitro using LoVo cells that had been arrested in G1 phase by growing to confluence to mimic the radio-resistant quiescent cell population in tumors. Cells were exposed to 8 Gy of γ-irradiation (Gammacel 1000 Elite, Nordian International Inc. Canada), and either harvested and plated for colony formation assay immediately or maintained as growth arrested confluent cultures for a 24-hour recovery period before harvesting and plating for the colony formation assay. Where indicated, 0.4 μM compound Formula 1 was added 30 minutes before irradiation and was present throughout the recovery incubation.

[3] = IV pharmacokinetics in rats; settings: Wistar, rat, in vivo, 5 mg/kg
Description: (§1) Each of the dose treatment groups was split into 2 cohort groups of 4 mice. The reason for cohort blood sampling is due to the blood volume limitations of the mouse species. Blood was drawn from each cohort every other pharmacokinetic sampling time. […] Three mice per dose group were euthanized at each of the collection time points. […] Blood from each rat was collected for each time point.

LoVo xenografts = test: Ex-vivo clonogenic assay of irradiated LoVo xenografts; type: in vivo
Method: 24 h later tumors were excised, disaggregated to obtain single cell suspensions and plated for colony forming assay. […] The SF for the 15 mg/kg and 30 mg/kg IR combinations equated to that which would have been achieved using radiation doses of 8 Gy or 9.5 Gy, giving dose modification factors (DMF) of 1.6 and 1.9 respectively.

PARP [4] = test: Inhibition of cellular NAD consumption in mouse peripheral blood lymphocytes after PARP activation; type: cell-based; settings: PARP activated by MNNG, hydrogen peroxide or gamma irradiation, data not shown
Description: After DNA damage, cellular NAD is rapidly incorporated into poly-ADP-ribose polymer.

in vivo = settings: CD-1, mouse, iv, 5 mg/kg
Description: as §1

[5] = 15 mg/kg single IV dose as glucuronate salt

For `CNCc1ccc(-c2[nH]c3cc(F)cc4c3c2CCNC4=O)cc1.O=P(O)(O)O` [Compound I, phosphate salt of 8-fluoro-2-{4-[(methylamino)methyl]phenyl}-1,3,4,5-tetrahydro-6H-azepino[5,4,3-cd]indol-6-one], the “% PARP Inhibition” value (PARP [1]; tumor biopsy 4-6 h, temozolomide 135 mg/m^2, Compound I 12 mg/m^2, day 1, individual patients) was 91%, the “% PARP Inhibition” value (PARP [1]; tumor biopsy 4-6 h, temozolomide 135 mg/m^2, Compound I 12 mg/m^2, day 4, individual patients) was 85% and 50% and the “% PARP Inhibition” value (PARP [1]; tumor biopsy 4-6 h, temozolomide 170 mg/m^2, Compound I 12 mg/m^2, day 1, individual patients) was 77% and 98%. For the same compound, the “% PARP Inhibition” value (PARP [1]; tumor biopsy 4-6 h, temozolomide 170 mg/m^2, Compound I 12 mg/m^2, day 5, individual patients) was 93%, the “% PARP Inhibition” value (PARP [1]; tumor biopsy 4-6 h, temozolomide 200 mg/m^2, Compound I 12 mg/m^2, day 1, individual patients) was 90% and 88% and the “% PARP Inhibition” value (PARP [1]; tumor biopsy 4-6 h, temozolomide 200 mg/m^2, Compound I 18 mg/m^2, day 1, individual patients) was 98% and 94% and 89% and 97%. For the same compound, the “% PARP Inhibition” value (PARP [1]; tumor biopsy 4-6 h post-treatment, temozolomide 100 mg/m^2, Compound I 4 mg/m^2, day 1, individual patients) was 79% and the “% PARP Inhibition” value (PARP [1]; tumor biopsy at 24 hours post-treatment on day 1, temozolomide 200 mg/m^2, Compound I 18 mg/m^2) was 86%*.

With `CNCc1ccc(-c2[nH]c3cc(F)cc4c3c2CCNC4=O)cc1.O=C[C@H](O)[C@@H](O)[C@H](O)[C@H](O)C(=O)O` [compound of formula 1 glucuronate salt] the “Enhancement (%)” value (SW620 xenograft; irinotecan 25 mg/kg i.p. + 0.05 mg/kg i.p. (glucuronate salt)) was 700%, the “Enhancement (%)” value (SW620 xenograft; irinotecan 25 mg/kg i.p. + 0.15 mg/kg i.p. (glucuronate salt)) was 1100^f % and the “Enhancement (%)” value (SW620 xenograft; irinotecan 25 mg/kg i.p. + 0.5 mg/kg i.p. (glucuronate salt)) was 1100^f %.

`CNCc1ccc(-c2[nH]c3cc(F)cc4c3c2CCNC4=O)cc1` [compound of formula 1, 8-fluoro-2-{4-[(methylamino)methyl]phenyl}-1,3,4,5-tetrahydro-6H-azepino[5,4,3-cd]indol-6-one] showed an AUC(0-inf) ([2]; 15 mg/kg single IV dose (free base) as glucuronate salt) of 7400 ± 700 ng·h/mL, a clearance [2, 5] of 33.8 ± 3.1 mL/min/kg and a half-life [2, 5] of 5.2 ± 0.8 h. The Vd ([2]; 15 mg/kg single IV dose as glucuronate salt, read-out: Vss) was 7.2 ± 1.2 L/kg, the “Topotecan PF50” value (SW620 cells; +0.4 μM compound of formula 1) was 2.6 and the GI50 (SW620 cells; Homo sapiens, SW-620, 120 h, 5-day continuous exposure) was 11 µM. The “% PLDR” value (LoVo cells; 100 × (survival at 24 hr-survival at 0 time)/survival at 0 time) was 211 ± 184%, the “Survival at 0 time” value (LoVo cells; G1-arrested) was 0.02 ± 0.01 and the “Survival at 24 hr” value (LoVo cells; G1-arrested) was 0.057 ± 0.038. It also gave an inhibition at 0.4 µM (LoVo cells; Homo sapiens, mean of 3 independent experiments, read-out: Inhibition of PLDR) of 64.9%, an AUC(0-inf) [3] of 990 ng·h/mL and a Vd [3] of 10 L/kg. For the same compound, the clearance [3] was 85 mL/min/kg, the half-life [3] was 2.8 h and the “DMF, dose modification factor” value (LoVo xenografts; 15 mg/kg + 5 Gy) was 1.6. For the same compound, the “SF, surviving fraction” value (LoVo xenografts; 15 mg/kg + 5 Gy) was 0.06, the “radiation dose that would give the same SF” value (LoVo xenografts; 15 mg/kg + 5 Gy) was 8 Gy and the “DMF, dose modification factor” value (LoVo xenografts; 30 mg/kg + 5 Gy) was 1.9. The “SF, surviving fraction” value (LoVo xenografts; 30 mg/kg + 5 Gy) was 0.03, the “radiation dose that would give the same SF” value (LoVo xenografts; 30 mg/kg + 5 Gy) was 9.5 Gy and the “inhibition of PARP catalytic activity (cellular NAD consumption)” value (PARP [4]) was “inhibits PARP catalytic activity”. It also gave an AUC(0-inf) (in vivo) of 620 ng·h/mL, a Vd (in vivo) of 10 L/kg and a clearance (in vivo) of 136 mL/min/kg. The half-life (in vivo) was 2.3 h.
